{
  "source": "ChEMBL document CHEMBL1201862",
  "about": "“PubChem BioAssay data set” (2004)",
  "key": {"[1]": {"target": "T1, Neuropeptide Y receptor type 1 (Homo sapiens, UniProt P25929)", "T1 sequence (P25929 whole entry)": "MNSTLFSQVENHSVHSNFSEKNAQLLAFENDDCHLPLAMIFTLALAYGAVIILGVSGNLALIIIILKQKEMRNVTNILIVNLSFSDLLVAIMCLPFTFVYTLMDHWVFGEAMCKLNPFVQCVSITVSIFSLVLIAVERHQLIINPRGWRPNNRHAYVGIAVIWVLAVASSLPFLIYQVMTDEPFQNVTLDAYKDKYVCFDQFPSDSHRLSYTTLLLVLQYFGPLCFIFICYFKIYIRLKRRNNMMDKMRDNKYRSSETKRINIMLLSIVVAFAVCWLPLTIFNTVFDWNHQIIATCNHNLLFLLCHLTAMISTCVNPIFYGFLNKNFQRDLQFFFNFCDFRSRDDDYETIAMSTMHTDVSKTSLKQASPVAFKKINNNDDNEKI", "test": "Fluorescence-based dose response cell-based high-throughput screening assay for agonists of NPY-Y1. [Related pubchem assays: 1697 (Screening assay (NPY-Y1 agonists).), 1359 (Screening assay (NPY-Y2 potentiators or agonists).), 1304 (Screening assay (NPY-Y1 potentiators or agonists).), 1704 (Screening assay (CNGC inhibitors).), 1791 (Summary AID.)]", "assay_type": "functional"}, "[2]": {"test_system": "HEK293", "test": "Fluorescence-based counterscreen for potentiators or agonists of NPY-Y1: cell-based high-throughput dose response assay for inhibitors of cyclic nucleotide gated ion channel (CNGC) activity. In this assay, the parental HEK293 cell line transfected with a cyclic-nucleotide gated ion channel (CNGC)-based cAMP sensor is used to measure inhibition of isoproterenol-induced CNGC …", "assay_type": "functional", "conditions": "Homo sapiens"}, "[3]": {"target": "T2, Neuropeptide Y receptor type 2 (Homo sapiens, UniProt P49146)", "T2 sequence (P49146 whole entry)": "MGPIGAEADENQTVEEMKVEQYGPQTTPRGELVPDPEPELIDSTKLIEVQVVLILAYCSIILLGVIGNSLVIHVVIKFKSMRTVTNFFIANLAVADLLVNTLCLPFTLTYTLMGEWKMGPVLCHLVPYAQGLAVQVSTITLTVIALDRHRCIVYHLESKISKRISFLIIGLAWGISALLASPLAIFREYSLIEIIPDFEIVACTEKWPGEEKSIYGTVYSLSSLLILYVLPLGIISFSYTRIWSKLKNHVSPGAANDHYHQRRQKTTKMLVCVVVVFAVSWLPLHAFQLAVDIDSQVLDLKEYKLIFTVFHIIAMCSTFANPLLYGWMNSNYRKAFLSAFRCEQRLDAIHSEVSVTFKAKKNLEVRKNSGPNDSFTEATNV", "test": "Fluorescence-based counterscreen for agonists of NPY-Y1: cell-based high-throughput dose response assay for agonists of NPY-Y2.", "assay_type": "functional"}, "[4]": {"target": "T3, Microphthalmia-associated transcription factor (Homo sapiens, UniProt O75030)", "T3 sequence (O75030 whole entry)": "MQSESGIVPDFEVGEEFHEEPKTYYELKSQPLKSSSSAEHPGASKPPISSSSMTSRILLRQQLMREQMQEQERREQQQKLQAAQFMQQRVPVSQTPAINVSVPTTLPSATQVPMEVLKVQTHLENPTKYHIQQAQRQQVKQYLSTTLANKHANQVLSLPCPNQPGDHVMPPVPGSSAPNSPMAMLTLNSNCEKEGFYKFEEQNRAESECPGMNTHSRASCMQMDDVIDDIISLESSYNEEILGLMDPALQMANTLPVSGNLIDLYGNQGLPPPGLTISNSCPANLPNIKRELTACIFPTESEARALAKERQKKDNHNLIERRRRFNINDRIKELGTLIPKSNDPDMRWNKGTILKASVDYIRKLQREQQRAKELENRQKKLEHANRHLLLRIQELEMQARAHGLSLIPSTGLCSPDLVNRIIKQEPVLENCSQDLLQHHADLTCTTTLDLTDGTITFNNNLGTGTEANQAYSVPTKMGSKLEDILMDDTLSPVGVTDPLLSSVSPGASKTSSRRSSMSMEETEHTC", "test": "TRPM1 promoter luciferase signal decrease, dose response, MITF inhibitor project, cell-based, SK-MEL-5, cherry-picked, set 3 (AID 493073)", "assay_type": "functional"}, "[5]": {"target": "Transitional endoplasmic reticulum ATPase (Homo sapiens, UniProt P55072)", "sequence (P55072 whole entry)": "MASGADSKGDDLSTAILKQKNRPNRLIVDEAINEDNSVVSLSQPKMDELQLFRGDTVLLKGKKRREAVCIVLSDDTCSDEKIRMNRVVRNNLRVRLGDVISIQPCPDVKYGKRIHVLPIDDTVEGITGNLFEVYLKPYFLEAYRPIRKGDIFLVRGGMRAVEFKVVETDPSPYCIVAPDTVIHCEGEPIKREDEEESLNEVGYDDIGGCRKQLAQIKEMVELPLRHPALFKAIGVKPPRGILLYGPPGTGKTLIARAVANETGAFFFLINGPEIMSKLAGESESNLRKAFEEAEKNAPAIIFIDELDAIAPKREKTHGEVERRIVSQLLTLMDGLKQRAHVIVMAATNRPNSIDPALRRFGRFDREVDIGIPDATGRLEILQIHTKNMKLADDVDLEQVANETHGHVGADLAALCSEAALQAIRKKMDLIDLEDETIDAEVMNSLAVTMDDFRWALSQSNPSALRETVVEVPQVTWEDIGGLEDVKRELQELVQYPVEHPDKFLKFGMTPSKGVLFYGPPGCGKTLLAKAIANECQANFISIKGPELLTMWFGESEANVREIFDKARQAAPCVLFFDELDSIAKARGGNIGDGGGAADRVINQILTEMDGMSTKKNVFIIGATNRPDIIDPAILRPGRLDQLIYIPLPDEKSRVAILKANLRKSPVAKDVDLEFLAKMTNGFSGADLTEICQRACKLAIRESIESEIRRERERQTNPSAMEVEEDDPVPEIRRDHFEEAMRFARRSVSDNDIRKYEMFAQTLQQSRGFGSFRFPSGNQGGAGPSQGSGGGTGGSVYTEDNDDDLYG", "test": "p97 ATPase inhibitors, dose response, biochemical (AID 1534)"}, "[6]": {"target": "Transitional endoplasmic reticulum ATPase (Homo sapiens, UniProt P55072, C522A)", "sequence (P55072 2-806 C522A limits assumed)": "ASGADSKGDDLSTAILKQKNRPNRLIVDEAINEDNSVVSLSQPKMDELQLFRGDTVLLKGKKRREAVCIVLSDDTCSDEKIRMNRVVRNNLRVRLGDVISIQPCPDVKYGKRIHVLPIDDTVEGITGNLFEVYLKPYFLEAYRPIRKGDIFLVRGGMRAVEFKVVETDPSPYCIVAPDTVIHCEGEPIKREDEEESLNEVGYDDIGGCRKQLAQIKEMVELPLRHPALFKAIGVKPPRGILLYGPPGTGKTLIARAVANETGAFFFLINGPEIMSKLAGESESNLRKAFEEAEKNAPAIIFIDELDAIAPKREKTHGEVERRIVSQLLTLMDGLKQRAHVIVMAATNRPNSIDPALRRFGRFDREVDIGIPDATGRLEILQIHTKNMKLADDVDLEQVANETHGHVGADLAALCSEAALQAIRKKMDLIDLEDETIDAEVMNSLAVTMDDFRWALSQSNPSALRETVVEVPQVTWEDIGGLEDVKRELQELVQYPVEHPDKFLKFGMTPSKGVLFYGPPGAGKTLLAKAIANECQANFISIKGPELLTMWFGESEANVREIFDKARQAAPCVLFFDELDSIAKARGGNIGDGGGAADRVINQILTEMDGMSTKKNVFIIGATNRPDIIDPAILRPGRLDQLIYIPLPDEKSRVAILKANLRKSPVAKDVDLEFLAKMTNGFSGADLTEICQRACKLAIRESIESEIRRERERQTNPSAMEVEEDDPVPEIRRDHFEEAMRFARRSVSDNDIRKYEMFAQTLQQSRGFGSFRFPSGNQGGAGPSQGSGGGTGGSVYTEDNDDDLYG", "test": "C522A mutant p97 ATPase inhibitors, dose response, counter-screen for p97 inhibitor project, biochemical, luminescence (AID 1544)"}, "[7]": {"target": "Cytochrome P450 2C19 (Homo sapiens, UniProt P33261)", "sequence (P33261 whole entry)": "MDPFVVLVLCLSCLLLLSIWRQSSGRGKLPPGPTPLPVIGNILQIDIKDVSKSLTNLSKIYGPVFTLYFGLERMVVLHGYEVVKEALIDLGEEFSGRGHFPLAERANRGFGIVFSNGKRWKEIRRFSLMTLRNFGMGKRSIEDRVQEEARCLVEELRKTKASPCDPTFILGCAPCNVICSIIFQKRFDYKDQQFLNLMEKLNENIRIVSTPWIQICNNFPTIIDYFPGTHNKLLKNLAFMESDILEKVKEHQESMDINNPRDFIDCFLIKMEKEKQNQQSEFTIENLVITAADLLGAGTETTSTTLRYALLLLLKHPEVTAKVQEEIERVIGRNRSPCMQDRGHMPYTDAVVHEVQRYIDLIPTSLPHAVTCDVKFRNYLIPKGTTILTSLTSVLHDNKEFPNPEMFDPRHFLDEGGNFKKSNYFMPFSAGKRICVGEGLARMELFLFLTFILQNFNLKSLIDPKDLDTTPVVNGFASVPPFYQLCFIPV", "test": "qHTS Assay for Inhibitors and Substrates of Cytochrome P450 2C19. [Related pubchem assays: 410 ]", "assay_type": "ADME", "conditions": "read-out: Potency"}, "[8]": {"target": "Cytochrome P450 2D6 (Homo sapiens, UniProt P10635)", "sequence (P10635 whole entry)": "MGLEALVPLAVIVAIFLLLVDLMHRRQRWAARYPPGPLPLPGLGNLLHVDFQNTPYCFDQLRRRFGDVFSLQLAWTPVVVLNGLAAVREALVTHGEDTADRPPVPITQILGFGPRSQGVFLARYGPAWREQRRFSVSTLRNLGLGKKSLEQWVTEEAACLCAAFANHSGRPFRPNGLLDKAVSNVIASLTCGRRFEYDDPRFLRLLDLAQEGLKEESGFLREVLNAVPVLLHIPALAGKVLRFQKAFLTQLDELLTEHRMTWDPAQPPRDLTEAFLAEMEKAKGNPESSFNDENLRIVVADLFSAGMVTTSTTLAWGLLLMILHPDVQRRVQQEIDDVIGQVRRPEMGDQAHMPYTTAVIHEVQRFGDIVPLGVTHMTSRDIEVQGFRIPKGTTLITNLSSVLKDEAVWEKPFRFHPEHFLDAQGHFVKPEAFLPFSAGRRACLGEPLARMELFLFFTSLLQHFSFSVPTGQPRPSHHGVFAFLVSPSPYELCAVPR", "test": "qHTS Assay for Inhibitors and Substrates of Cytochrome P450 2D6. [Related pubchem assays: 410 ]", "assay_type": "ADME", "conditions": "read-out: Potency"}, "[9]": {"test": "inhibitors of SNCA 5'UTR-driven reporter translation, confirmation, H4 neuroglioma cells, luminescence (AID 1988)", "assay_type": "functional, cell-based"}, "[10]": {"test": "inhibitors of firefly luciferase expression or activity, dose response, H4 neuroglioma cells, luminescence (AID 1990)", "assay_type": "functional, cell-based"}, "[11]": {"test": "inhibitors of SNCA 5'UTR-driven translation, confirmation, luminescence, H4 neuroglioblastoma cells, dose confirmation (AID 2454);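 further: H4 neuroglioblastoma cells carrying an alpha-synuclein 5'UTR luciferase reporter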", "assay_type": "functional, cell-based"}, "[12]": {"test": "luciferase reporter signal reduction – luminescence, H4-C neuroglioblastoma cells, dose response (AID 2458);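 further: H4 neuroglioblastoma cells stably carrying a luciferase reporter gene fusion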", "assay_type": "functional, cell-based"}, "[13]": {"test": "cells", "assay_type": "functional, cell-based"}, "[14]": {"target": "Procathepsin L (Homo sapiens, UniProt P07711)", "sequence (P07711 whole entry)": "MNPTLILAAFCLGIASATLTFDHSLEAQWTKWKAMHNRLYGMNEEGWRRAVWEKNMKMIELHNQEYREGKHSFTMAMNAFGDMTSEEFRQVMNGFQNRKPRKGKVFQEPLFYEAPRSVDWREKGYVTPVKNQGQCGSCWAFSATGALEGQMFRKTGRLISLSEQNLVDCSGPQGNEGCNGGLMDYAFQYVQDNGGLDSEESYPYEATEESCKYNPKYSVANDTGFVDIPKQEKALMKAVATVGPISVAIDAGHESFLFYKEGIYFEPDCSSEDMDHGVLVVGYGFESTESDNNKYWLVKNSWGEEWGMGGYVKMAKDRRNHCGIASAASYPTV"}, "[15]": {"target": "T4, Aspartyl aminopeptidase (Plasmodium falciparum 3D7, UniProt Q8I2J3)", "T4 sequence (Q8I2J3 whole entry)": "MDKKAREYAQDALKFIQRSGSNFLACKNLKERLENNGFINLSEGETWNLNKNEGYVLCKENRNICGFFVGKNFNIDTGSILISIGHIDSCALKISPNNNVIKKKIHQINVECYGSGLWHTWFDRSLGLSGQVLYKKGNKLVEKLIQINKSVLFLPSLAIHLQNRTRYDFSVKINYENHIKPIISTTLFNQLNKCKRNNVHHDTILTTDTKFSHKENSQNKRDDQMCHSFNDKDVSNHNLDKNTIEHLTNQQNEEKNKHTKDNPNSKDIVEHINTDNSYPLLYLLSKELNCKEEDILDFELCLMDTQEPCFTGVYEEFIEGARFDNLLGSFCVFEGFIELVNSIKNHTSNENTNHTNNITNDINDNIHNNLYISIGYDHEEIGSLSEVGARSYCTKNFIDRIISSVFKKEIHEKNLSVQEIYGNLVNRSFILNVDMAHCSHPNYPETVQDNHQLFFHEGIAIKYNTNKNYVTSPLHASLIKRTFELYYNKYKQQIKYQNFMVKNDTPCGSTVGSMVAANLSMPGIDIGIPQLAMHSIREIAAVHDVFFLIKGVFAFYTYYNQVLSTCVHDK"}, "[16]": {"target": "Intestinal-type alkaline phosphatase (Homo sapiens, UniProt P09923)", "test": "activation of human intestinal alkaline phosphatase – biochemical, dose response (AID 488873)", "assay_type": "functional"}, "[17]": {"target": "Intestinal-type alkaline phosphatase (Mus musculus, UniProt P24822)", "sequence (P24822 whole entry)": "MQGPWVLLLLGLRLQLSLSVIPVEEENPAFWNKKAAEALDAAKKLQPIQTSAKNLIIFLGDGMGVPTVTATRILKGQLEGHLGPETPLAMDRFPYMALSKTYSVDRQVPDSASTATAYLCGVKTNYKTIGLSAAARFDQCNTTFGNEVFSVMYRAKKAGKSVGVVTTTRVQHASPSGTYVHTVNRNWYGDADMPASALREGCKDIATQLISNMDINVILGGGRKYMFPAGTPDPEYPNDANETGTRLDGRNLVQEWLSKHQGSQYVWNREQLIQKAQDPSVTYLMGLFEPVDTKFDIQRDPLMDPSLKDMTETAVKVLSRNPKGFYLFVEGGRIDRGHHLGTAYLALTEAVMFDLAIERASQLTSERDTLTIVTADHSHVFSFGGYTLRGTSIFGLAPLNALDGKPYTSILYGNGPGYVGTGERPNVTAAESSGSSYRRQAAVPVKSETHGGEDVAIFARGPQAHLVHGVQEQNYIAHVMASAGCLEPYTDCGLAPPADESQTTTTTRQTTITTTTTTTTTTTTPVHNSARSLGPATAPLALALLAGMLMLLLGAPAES", "test": "mouse intestinal alkaline phosphatase activators, dose response, biochemical, luminescence, uHTS hits (AID 488783)", "assay_type": "functional"}, "[18]": {"target": "FAD-linked sulfhydryl oxidase ALR (Homo sapiens, UniProt P55789)", "sequence (P55789 whole entry)": "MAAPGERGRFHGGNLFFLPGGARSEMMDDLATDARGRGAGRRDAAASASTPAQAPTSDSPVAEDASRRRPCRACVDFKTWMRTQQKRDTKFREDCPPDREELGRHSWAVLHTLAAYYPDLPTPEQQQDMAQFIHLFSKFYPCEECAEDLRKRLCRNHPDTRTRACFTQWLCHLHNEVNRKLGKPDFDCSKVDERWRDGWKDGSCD", "test": "inhibitors of human ALR sulfhydryl oxidase, dose response, biochemical, H2O2 detection, luminescence, cherry-pick (AID 493248)"}, "[19]": {"target": "T5, Alkaline phosphatase, tissue-nonspecific isozyme (Homo sapiens, UniProt P05186)", "T5 sequence (P05186 whole entry)": "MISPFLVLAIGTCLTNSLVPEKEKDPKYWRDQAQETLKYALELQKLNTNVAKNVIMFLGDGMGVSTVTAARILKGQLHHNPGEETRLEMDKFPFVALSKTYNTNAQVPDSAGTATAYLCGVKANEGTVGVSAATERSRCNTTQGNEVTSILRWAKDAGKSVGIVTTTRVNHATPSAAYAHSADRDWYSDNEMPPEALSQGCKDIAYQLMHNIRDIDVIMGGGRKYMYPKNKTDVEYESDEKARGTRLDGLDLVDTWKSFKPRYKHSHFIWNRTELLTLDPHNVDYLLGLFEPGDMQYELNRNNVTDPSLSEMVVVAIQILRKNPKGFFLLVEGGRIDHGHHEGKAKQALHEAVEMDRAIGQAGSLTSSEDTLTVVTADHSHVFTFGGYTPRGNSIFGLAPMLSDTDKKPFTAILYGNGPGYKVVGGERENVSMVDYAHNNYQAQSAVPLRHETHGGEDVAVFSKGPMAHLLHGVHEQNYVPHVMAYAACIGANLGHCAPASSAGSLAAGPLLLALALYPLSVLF", "test": "TNAP enzyme activators, dose response, selectivity assay for mouse IAP activator project, biochemical, TNAP isozyme, mouse IAP uHTS hits (AID 488880)", "assay_type": "functional"}, "[20]": {"test": "THP-1 cell cytotoxicity, dose response, cytotoxicity control for Vif-APOBEC3G degradation inhibitor project, THP-1 cells (AID 1117359)", "assay_type": "functional", "conditions": "Human immunodeficiency virus 1, THP-1"}, "[21]": {"target": "Albumin (Bos taurus, UniProt P02769)", "sequence (P02769 whole entry)": "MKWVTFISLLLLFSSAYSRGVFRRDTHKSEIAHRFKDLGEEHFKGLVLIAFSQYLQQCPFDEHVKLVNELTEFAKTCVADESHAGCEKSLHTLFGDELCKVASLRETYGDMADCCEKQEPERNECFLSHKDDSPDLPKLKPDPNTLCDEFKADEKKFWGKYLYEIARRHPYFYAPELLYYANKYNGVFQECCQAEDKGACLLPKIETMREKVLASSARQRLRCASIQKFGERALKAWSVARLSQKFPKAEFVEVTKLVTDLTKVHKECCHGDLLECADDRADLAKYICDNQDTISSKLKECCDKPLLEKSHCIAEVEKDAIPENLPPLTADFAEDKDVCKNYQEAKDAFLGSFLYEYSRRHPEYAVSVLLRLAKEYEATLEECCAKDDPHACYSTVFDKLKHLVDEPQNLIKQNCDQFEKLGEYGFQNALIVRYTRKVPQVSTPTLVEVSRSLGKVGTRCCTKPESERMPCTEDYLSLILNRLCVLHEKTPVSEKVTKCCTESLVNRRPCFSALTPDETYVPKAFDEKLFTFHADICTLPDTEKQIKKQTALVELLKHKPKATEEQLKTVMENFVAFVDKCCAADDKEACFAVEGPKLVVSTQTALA", "test": "Counterscreen for inhibitors of T-cell receptor (TCR)-CD3 interaction: Fluorescence-based biochemical high throughput dose response assay to identify inhibitors of T-cell receptor (TCR)-CD3 interaction using a TAMRA-labeled BSA probe.", "assay_type": "functional"}, "[22]": {"target": "Large T antigen (Simian virus 40, UniProt P03070)", "sequence (P03070 whole entry)": "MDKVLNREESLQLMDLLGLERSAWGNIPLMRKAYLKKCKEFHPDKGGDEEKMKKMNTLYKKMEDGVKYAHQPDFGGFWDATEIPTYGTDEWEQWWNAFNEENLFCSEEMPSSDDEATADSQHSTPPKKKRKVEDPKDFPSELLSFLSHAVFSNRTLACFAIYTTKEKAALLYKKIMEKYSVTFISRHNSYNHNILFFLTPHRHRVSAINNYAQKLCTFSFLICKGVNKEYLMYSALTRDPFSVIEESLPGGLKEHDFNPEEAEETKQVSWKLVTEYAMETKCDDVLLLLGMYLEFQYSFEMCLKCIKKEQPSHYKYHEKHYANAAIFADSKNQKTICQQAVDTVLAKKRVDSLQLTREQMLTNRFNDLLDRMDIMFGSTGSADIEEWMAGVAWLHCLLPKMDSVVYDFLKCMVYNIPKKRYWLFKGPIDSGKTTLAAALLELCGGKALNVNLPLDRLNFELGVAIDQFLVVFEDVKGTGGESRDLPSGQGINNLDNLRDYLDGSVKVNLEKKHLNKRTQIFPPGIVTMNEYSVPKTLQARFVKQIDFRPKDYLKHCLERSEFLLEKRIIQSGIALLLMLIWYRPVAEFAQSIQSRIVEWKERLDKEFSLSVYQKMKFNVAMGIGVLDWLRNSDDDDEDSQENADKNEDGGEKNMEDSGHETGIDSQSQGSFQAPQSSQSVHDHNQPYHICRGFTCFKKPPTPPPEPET", "assay_type": "functional, Betapolyomavirus macacae"}},
  "note": "The source made the active and inactive calls.",
  "data": [
    {"smiles": "COc1ccccc1Oc1ccc(-c2cnc3ccccc3n2)cc1[N+](=O)[O-]", "values": [
      {"measurement": "EC50", "setting": "[1]", "result": "> 35.4 µM (not active)"},
      {"measurement": "IC50", "setting": "[2]", "result": "> 35.4 µM (not active)"},
      {"measurement": "EC50", "setting": "[3]", "result": "> 35.4 µM (not active)"}
    ]},
    {"smiles": "Cn1cc(C(=O)CCl)c2ccccc21", "values": [
      {"measurement": "AC50", "setting": "[4]", "result": "8.48 µM (active)"},
      {"measurement": "IC50", "setting": "[5]", "result": "> 50 µM (not active)"},
      {"measurement": "IC50", "setting": "[6]", "result": "> 50 µM (not active)"}
    ]},
    {"smiles": "CCN(CC)[C@@H](C)C(=O)N1c2ccccc2Sc2ccccc21", "values": [
      {"measurement": "AC50", "setting": "[7]", "result": "31.6 µM (inconclusive)"},
      {"measurement": "AC50", "setting": "[8]", "result": "20 µM (inconclusive)"}
    ]},
    {"smiles": "O=Cc1cn(Cc2ccccc2F)c2ccccc12", "values": [
      {"measurement": "EC50", "setting": "[9]", "result": "< 0.1 µM (active)"},
      {"measurement": "EC50", "setting": "[10]", "result": "14 µM (active)"},
      {"measurement": "EC50", "setting": "[11]", "result": "2.11 µM (active)"},
      {"measurement": "EC50", "setting": "[12]", "result": "3.85 µM (active)"},
      {"measurement": "EC50", "setting": "[13]", "result": "1.75 µM (active)"}
    ]},
    {"smiles": "Oc1ccc(/C=N/N=C/c2ccc(O)c(O)c2)cc1O", "values": [
      {"measurement": "IC50", "setting": "[14]", "result": "> 59.6 µM (not active)"},
      {"measurement": "IC50", "setting": "[15]", "result": "1.75 µM (active)"},
      {"measurement": "EC50", "setting": "[16]", "result": "27.3 µM (active)"},
      {"measurement": "EC50", "setting": "[17]", "result": "18 µM (active)"},
      {"measurement": "AC50", "setting": "[18]", "result": "0.543 µM (active)"},
      {"measurement": "EC50", "setting": "[19]", "result": "37.4 µM (active)"},
      {"measurement": "CC50", "setting": "[20]", "result": "39.1 µM (active)"},
      {"measurement": "IC50", "setting": "[21]", "result": "> 94.1 µM (inactive)"},
      {"measurement": "IC50", "setting": "[22]", "result": "1.15 µM (active)"}
    ]}
  ]
}
